pKi: −log10 of the molar value.

Experimental findings from ChEMBL document CHEMBL1144289, “A convenient one-pot synthesis of asymmetric 1,3,5-triazine-2,4,6-triones and its application towards a novel class of gonadotropin-releasing hormone receptor antagonists” (Bioorg Med Chem Lett, 2005) are described below.

The target in the assay is T1, Gonadotropin-releasing hormone receptor (Homo sapiens, UniProt P30968).
T1 sequence (P30968 whole entry): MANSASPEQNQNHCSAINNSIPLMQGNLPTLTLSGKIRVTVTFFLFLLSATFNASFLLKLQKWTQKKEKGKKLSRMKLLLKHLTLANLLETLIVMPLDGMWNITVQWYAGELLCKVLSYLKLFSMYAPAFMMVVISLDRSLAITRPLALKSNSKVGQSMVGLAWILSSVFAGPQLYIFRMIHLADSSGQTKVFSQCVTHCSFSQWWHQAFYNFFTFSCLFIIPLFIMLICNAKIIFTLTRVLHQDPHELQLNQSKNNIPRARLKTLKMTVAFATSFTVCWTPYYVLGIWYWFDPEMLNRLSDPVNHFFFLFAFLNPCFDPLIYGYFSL
The assay can be described thus: Inhibitory constant against cloned human Gonadotropin-releasing hormone receptor stably expressed in HEK293 cells was determined. The class given is cell-based.

The molecule `NC(Cc1c[nH]c2ccccc12)Cn1c(=O)n(Cc2c(F)cccc2F)c(=O)n(-c2c(F)cccc2F)c1=O` (centres undefined) showed a negative logarithm of the Ki (pKi) of 6.42.

`N[C@@H](Cn1c(=O)n(Cc2c(F)cccc2F)c(=O)n(-c2c(F)cccc2F)c1=O)c1ccccc1` showed a pKi of 6.66.

As to `COc1cccc(-c2c(C)n(CCN(C)CCc3ccccn3)c(=O)n(Cc3c(F)cccc3F)c2=O)c1`, the pKi is below 4.70.

On to `N[C@@H](Cn1c(=O)n(Cc2c(F)cccc2F)c(=O)n(-c2ccc3nsnc3c2)c1=O)c1ccccc1`, for which the pKi was 6.39.

Regarding `N[C@@H](Cn1c(=O)n(Cc2c(F)cccc2F)c(=O)n(-c2ccccc2F)c1=O)c1ccccc1`, the negative-log Ki (pKi) is 7.05.

Take `COc1cccc(-n2c(=O)n(CCN(C)CCc3ccccn3)c(=O)n(Cc3c(F)cccc3F)c2=O)c1`: the pKi was 5.38.

For the molecule `COc1cccc(-c2c(C)n(Cc3c(F)cccc3F)c(=O)n(C[C@@H](C)N(C)CCc3ccccn3)c2=O)c1`, the negative-log Ki (pKi) is 8.96.

On to `COc1cccc(-n2c(=O)n(Cc3c(F)cccc3F)c(=O)n(CC(N)c3ccccc3)c2=O)c1` (centres undefined), for which the pKi is 6.92.

Regarding `COc1cccc(-n2c(=O)n(Cc3c(F)cccc3F)c(=O)n(C[C@H](N)c3ccccc3)c2=O)c1`, the pKi is 7.43.
